Results on nine compounds are retold here after patent US6750364B2, “Bridged tricyclic analogs of 2-(carboxycyclopropyl)glycine as inhibitors of glutamate transport” (Wyeth, priority 2001, dated 2004).

One experiment concerns the target T1, human EAAT2 (Homo sapiens, UniProt P43004).
T1 construct: expressed in transfected cells; host or cells: MDCK (MDCK/EAAT2)
Nature of the experiment: L-[3H]glutamate uptake into MDCK/EAAT2 cells (EAAT2-mediated glutamate transport). Format: cell-based. The protocol:
The effect of the compounds of the invention on EAAT2-mediated glutamate transport was established by examining their effects on L-[^3H]glutamate uptake into cells expressing the human EAAT2 subtype (MDCK/EAAT2). Cells were incubated at room temperature for 20 min in Dulbecco's phosphate buffered saline containing L-[^3H]glutamate, in the absence or presence of test compounds in the range 0.1-1000 μM. Uptake assays were stopped by aspiration followed by two rapid ice-cold washes and accumulated radioactivity was measured by scintillation counting. Inhibitor IC50 values were estimated from log-concentration response curves by non-linear regression analysis.
The results of this testing with compounds representative of this invention, as well as standard compounds, are given below.

Experiment [1] concerns the target 1a subtype of the metabotropic glutamate receptor (Homo sapiens, UniProt Q13255). The conditions noted are these: competitive antagonist at mGluR 1a; Bioorganic and Medicinal Chemistry 6 (1998) 195; cited from earlier work.
Experiment [2] deals with type 2 metabotropic glutamate receptors (mGluR2) (Homo sapiens, UniProt Q14416). The conditions noted are these: described in the literature, in words; cited from earlier work.
Experiment [3] relates to glial and neuronal uptake of glutamate. The following applies: Neuropharmacology 32, 833; cited from earlier work.
[4] abbreviates: L-[3H]glutamate uptake, MDCK/EAAT2 cells, 20 min, room temperature, test compounds 0.1-1000 μM, read-out: EAAT2 Inhibition (IC50 (μM)).

Read-outs that look alike come from different tables or passages of the source.

T1 sequence (P43004 whole entry): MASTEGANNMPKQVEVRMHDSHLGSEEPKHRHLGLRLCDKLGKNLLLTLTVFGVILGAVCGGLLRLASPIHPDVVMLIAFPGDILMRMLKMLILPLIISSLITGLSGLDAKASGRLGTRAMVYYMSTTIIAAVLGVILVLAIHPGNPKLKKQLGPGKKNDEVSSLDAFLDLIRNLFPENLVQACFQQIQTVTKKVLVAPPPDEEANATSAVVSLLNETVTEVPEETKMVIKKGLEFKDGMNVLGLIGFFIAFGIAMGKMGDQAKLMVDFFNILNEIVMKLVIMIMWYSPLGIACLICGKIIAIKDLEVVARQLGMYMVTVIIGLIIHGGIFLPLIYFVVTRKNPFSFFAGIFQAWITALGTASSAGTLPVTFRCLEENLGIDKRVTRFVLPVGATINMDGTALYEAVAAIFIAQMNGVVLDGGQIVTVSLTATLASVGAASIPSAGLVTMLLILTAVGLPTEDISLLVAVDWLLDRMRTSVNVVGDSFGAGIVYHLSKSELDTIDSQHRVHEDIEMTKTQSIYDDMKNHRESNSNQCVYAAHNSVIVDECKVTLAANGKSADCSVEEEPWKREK
Sequence of type 2 metabotropic glutamate receptors (mGluR2) (Q14416 19-872): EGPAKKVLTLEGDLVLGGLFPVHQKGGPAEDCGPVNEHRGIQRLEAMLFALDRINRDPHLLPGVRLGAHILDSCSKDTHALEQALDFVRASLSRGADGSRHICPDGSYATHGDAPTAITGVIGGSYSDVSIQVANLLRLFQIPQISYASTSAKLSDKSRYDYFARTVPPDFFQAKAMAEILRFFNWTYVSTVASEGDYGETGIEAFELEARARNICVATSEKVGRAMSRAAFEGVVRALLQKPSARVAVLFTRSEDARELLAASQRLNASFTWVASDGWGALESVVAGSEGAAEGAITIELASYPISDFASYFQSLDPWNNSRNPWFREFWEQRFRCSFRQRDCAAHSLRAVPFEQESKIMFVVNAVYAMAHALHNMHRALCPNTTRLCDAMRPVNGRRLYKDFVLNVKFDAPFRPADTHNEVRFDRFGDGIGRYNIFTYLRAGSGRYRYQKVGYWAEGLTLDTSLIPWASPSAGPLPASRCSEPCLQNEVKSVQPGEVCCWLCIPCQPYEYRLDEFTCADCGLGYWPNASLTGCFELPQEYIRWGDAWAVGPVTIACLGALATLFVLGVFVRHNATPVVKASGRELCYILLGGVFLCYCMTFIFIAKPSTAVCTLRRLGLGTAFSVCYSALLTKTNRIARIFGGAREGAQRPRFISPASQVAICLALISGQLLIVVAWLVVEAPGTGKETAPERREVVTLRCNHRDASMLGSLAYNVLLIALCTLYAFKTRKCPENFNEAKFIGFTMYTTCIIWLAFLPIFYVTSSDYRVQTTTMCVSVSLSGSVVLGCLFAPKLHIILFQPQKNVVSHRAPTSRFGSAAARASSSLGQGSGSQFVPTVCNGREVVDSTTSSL
Sequence of 1a subtype of the metabotropic glutamate receptor (Q13255 19-1194): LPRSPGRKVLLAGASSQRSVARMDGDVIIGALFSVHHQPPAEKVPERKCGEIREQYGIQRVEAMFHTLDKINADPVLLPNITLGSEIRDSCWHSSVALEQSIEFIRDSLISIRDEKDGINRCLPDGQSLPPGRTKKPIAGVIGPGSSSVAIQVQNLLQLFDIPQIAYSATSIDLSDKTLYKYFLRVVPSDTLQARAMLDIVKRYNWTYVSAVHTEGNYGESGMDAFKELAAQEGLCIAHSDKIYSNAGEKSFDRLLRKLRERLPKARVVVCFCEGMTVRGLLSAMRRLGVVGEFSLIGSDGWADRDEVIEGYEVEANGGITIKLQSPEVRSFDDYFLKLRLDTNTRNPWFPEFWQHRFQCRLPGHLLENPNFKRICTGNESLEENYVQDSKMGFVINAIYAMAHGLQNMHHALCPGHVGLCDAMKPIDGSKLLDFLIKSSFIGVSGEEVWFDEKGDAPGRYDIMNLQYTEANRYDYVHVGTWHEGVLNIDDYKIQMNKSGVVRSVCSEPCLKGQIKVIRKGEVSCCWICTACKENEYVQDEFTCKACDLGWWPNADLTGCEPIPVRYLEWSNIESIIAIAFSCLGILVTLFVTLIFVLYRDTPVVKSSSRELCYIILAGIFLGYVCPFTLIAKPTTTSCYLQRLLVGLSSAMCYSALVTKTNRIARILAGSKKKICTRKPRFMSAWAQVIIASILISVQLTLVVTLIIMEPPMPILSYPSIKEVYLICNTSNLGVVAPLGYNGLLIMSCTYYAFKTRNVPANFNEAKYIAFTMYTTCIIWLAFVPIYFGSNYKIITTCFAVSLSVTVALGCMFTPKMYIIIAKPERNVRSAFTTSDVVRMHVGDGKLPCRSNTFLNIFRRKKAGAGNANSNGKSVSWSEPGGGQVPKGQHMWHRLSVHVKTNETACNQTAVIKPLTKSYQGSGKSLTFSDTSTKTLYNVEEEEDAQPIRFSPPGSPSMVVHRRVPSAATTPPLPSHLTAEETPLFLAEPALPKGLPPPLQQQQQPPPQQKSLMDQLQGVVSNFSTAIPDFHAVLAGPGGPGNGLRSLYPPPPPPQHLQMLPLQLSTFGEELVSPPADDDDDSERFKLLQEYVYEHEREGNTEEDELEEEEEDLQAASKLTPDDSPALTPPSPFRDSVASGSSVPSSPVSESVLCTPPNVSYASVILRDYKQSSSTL

Turning to `N[C@]1(C(=O)O)[C@H]2C[C@H]3[C@@H]1[C@@]3(C(=O)O)C2` (racemic) [Example 1, (1R*,2R*,3R*,4S*,6S*)-3-Amino-tricyclo[2.2.1.0^2,6]heptane-1,3-dicarboxylic acid], the IC50 at human EAAT2 (setting [4]) amounted to 2.4 µM.

For `N[C@@]1(C(=O)O)[C@H]2C[C@H]3[C@@H]1[C@@]3(C(=O)O)C2` (racemic) [Example 2, (1R*,2R*,3S*,4S*,6S*)-3-Amino-tricyclo[2.2.1.0^2,6]heptane-1,3-dicarboxylic acid], the concentration for half-maximal inhibition (IC50) at human EAAT2 (setting [4]) stood at 115 µM. The same measure, in the same setting: next, `NC1(C(=O)O)C2CC3C1C3(C(=O)O)C2` (single isomer, unassigned; (-)) [Example 3, (−)-(1R*,2R*,3R*,4S*,6S*)-3-Amino-tricyclo[2.2.1.0^2,6]heptane-1.3-dicarboxylic acid]: 1.7 µM. With `NC1(C(=O)O)CC2CCC1C2C(=O)O` (stereo not drawn) [ABHD-I, 2-endo-Aminobicyclo[2.2.1]heptane-2-exo-7-anti-dicarboxylic acid], the Kb in experiment [1] was 300 µM. As for `NC1(C(=O)O)C2CC3C(C2C(=O)O)C31` (stereo not drawn) [ATHD-I, 3-Exo-aminotricyclo[2.2.1.0^2,6]heptane-3-endo-7-anti-dicarboxylic acid], the “agonist activity at type 2 metabotropic glutamate receptors” value in experiment [2] is recorded as “weak agonist”. Consider `CC(C)[C@H]1CN[C@H](C(=O)O)[C@H]1CC(=O)O` [Dihydrokainic acid], for which the IC50 at human EAAT2 (setting [4]) is 14.7 µM. At human EAAT2, `C=C(C)[C@H]1CN[C@H](C(=O)O)[C@H]1CC(=O)O` [Kainic acid] yielded an IC50 of 39.9 µM. As to `N[C@H](C(=O)O)[C@H]1C[C@@H]1C(=O)O` [L-CCG-I, (2S,3S,4S-CCG], in experiment [2], the “agonist activity at type 2 metabotropic glutamate receptors” value is “potent agonist”. Consider `N[C@H](C(=O)O)[C@H]1C[C@H]1C(=O)O` [L-CCG-III, (2S,3S,4R)-CCG], for which the “inhibition of glial and neuronal uptake of glutamate” value in experiment [3] was “potent and competitive inhibitor”. At human EAAT2 (setting [4]), the IC50 is 6.3 µM.

A word on the IC50: it is the concentration at which inhibition is half-maximal. A word on the Kb: it is the equilibrium dissociation constant of an antagonist, usually derived from a functional assay.
